Laboratory results taken from patent US10738033B2, “Trk inhibition” (NantBio, Inc., priority 2017, dated 2020).

Molecular target: T1, TrkA(h) (Homo sapiens, UniProt P04629)
T1 construct: purchased Millipore (KinaseProfiler service)
Test: KinaseProfiler (Millipore) radiometric kinase inhibition assay
Format: biochemical
Conditions: compound concentration 1 μM
Procedure: The KinaseProfiler™ Service Assay Protocols (Millipore) were used to test the kinase inhibiting activity of novel compounds from this invention. To do this, the buffer composition was as follows: 20 mM MOPS, 1 mM EDTA, 0.01% Brij-35, 5% Glycerol, 0.1% β-mercaptoethanol, 1 mg/mL BSA. Test compounds were initially dissolved in DMSO at the desired concentration, then serially diluted into the kinase assay buffer. In a final reaction volume of 25 μL, TrkA(h) (5-10 mU) is incubated with 8 mM MOPS pH 7.0, 0.2 mM EDTA, 200 μM LRRASLG (Kemptide), 10 mM MgAcetate and [γ^33P-ATP]. The reaction was initiated by the addition of the MgATP mix. After incubation for 40 minute at room temperature, the reaction was stopped by addition of 5 μL of a 3% phosphoric acid solution. 10 μL of the reaction was then spotted onto a P30 filtermat and washed three times for 5 minutes in 50 mM phosphoric acid and once in methanol prior to drying and scintillation counting. Wells containing substrate but no kinase and wells containing a phosphopeptide control were used to set 0% and 100% phosphorylation value, respectively.

T1 sequence (P04629 33-796): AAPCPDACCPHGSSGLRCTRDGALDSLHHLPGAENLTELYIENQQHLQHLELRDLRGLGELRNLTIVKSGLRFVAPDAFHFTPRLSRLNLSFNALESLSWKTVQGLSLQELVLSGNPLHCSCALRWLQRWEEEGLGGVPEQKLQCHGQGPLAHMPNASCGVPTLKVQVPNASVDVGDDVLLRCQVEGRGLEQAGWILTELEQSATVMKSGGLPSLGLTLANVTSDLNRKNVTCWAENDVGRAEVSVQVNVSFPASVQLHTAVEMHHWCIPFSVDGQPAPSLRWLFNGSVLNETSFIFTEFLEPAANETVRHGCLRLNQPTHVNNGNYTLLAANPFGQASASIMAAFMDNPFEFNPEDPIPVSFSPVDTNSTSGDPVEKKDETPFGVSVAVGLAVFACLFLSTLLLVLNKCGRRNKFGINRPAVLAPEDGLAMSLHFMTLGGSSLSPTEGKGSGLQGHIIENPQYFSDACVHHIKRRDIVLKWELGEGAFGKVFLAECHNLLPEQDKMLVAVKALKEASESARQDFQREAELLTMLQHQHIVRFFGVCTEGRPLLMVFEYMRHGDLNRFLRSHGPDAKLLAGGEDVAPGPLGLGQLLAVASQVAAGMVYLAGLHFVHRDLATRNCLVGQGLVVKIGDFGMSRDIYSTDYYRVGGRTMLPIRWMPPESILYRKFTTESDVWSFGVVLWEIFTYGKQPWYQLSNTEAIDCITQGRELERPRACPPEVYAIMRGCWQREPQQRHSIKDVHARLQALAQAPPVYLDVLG

| inhibition at 1 µM [%] | Compound |
| --- | --- |
| 99 | C/C=C/c1cc(Nc2cc(N3CCCC3c3ccc(F)cc3)ncn2)n[nH]1 (stereo not drawn) [Example 50] |
| 61 | FC(F)(F)c1cccc(C2CCCN2c2cc(Nc3cc(C4CC4)[nH]n3)ncn2)c1 (stereo not drawn) [Example 31] |
| 30 | Fc1ccc(C2CCCN2c2cc(Nc3cc(-c4ccccn4)[nH]n3)ncn2)cc1 (stereo not drawn) [Example 52] |
| 105 | Fc1ccc(C2CCCN2c2cc(Nc3cc(C4CC4)[nH]n3)ncn2)c(F)c1 (stereo not drawn) [Example 43] |
| 97 | Cc1cccc(C2CCCN2c2cc(Nc3cc(C4CC4)[nH]n3)ncn2)c1 (stereo not drawn) [Example 30] |
| 101 | Fc1ccc(C2CCCN2c2cc(Nc3cc(C4CCC4)[nH]n3)ncn2)cc1 (stereo not drawn) [Example 49] |
| 96 | OC1CC(c2cc(F)ccc2F)N(c2cc(Nc3cc(C4CC4)[nH]n3)ncn2)C1 (stereo not drawn) [Example 45] |
| 100 | Fc1ccc(C2CCCN2c2ncnc(Nc3cc(C4CC4)[nH]n3)n2)c(F)c1 (stereo not drawn) [Example 74] |
| 99 | CCCc1cc(Nc2cc(N3CCCC3c3ccc(Cl)cc3)ncn2)n[nH]1 (stereo not drawn) [Example 67] |
| 93 | FC(F)(F)c1ccccc1C1CCCN1c1cc(Nc2cc(C3CC3)[nH]n2)ncn1 (stereo not drawn) [Example 36] |
| 101 | Clc1cccc(C2CCCN2c2cc(Nc3cc(C4CC4)[nH]n3)ncn2)c1 (stereo not drawn) [Example 34] |
| 101 | COc1ccccc1C1CCCN1c1cc(Nc2cc(C3CC3)[nH]n2)ncn1 (stereo not drawn) [Example 37] |
| 70 | Clc1ccccc1C1CCCN1c1cc(Nc2cc(C3CCCO3)[nH]n2)ncn1 (stereo not drawn) [Example 54] |
| 101 | CN(C)c1cccc(C2CCCN2c2cc(Nc3cc(C4CC4)[nH]n3)ncn2)c1 (stereo not drawn) [Example 41] |
| 51 | Fc1ccc(C2CCCN2c2ncnc(Nc3cc(C4CC4)[nH]n3)c2F)cc1 (stereo not drawn) [Example 48] |
| 6 | CC(C)(C)OC(=O)N1CCC(c2cc(Nc3cc(N4CCCC4c4ccccc4Cl)ncn3)n[nH]2)CC1 (stereo not drawn) [Example 55] |
| 101 | COc1ccc(C2CCCN2c2cc(Nc3cc(C4CC4)[nH]n3)ncn2)cc1 (stereo not drawn) [Example 27] |
| 100 | Nc1nc(Nc2cc(C3CC3)[nH]n2)cc(N2CCCC2c2ccc(F)cc2)n1 (stereo not drawn) [Example 71] |
| 99 | c1ccc(C2CCCCN2c2cc(Nc3cc(C4CC4)[nH]n3)ncn2)cc1 (stereo not drawn) [Example 63] |
| 102 | CN(C)c1ccc(C2CCCN2c2cc(Nc3cc(C4CC4)[nH]n3)ncn2)cc1 (stereo not drawn) [Example 40] |
| 105 | Clc1ccc(C2CCCN2c2cc(Nc3cc(C4CC4)[nH]n3)ncn2)cc1 (stereo not drawn) [Example 29] |
| 101 | c1ccc(C2CCCN2c2cc(Nc3cc(C4CC4)[nH]n3)ncn2)cc1 (stereo not drawn) [Example 24] |
| 103 | Fc1ccc(F)c(C2CCCN2c2cc(Nc3cc(C4CC4)[nH]n3)ncn2)c1 (stereo not drawn) [Example 44] |
| 7 | N#Cc1cnc(Nc2cc(N3CCCC3c3ccc(F)cc3)ncn2)s1 (stereo not drawn) [Example 58] |

| inhibition at 1 µM [%] | Compound |
| --- | --- |
| -12 | CN1CCN(c2ccc(Nc3cc(N4CCCC4c4ccc(F)cc4)ncn3)nc2)CC1 (stereo not drawn) [Example 61] |
| 79 | Fc1ccc(C2CCCN2c2cc(Nc3n[nH]c4ccccc34)ncn2)cc1 (stereo not drawn) [Example 60] |
| 85 | c1ccc(C2COCCN2c2cc(Nc3cc(C4CC4)[nH]n3)ncn2)cc1 (stereo not drawn) [Example 64] |
| 95 | Fc1ccccc1C1CCCN1c1cc(Nc2cc(C3CC3)[nH]n2)ncn1 (stereo not drawn) [Example 38] |
| 79 | CN1CCN(c2cc(Nc3cc(C4CC4)[nH]n3)ncn2)C(c2ccccc2)C1 (stereo not drawn) [Example 65] |
| 105 | Fc1ccc(C2CCN2c2cc(Nc3cc(C4CC4)[nH]n3)ncn2)cc1 (stereo not drawn) [Example 62] |
| 96 | CC(C)Oc1cc(Nc2cc(N3CCCC3c3ccccc3Cl)ncn2)n[nH]1 (stereo not drawn) [Example 53] |
| 95 | Cc1cc(Nc2cc(N3CCCC3c3ccc(Cl)cc3)ncn2)n[nH]1 (stereo not drawn) [Example 66] |
| 79 | Fc1ccc(C2CCCN2c2cc(Nc3cc(-c4ccco4)[nH]n3)ncn2)cc1 (stereo not drawn) [Example 51] |
| 92 | Cc1ccccc1C1CCCN1c1cc(Nc2cc(C3CC3)[nH]n2)ncn1 (stereo not drawn) [Example 35] |
| 101 | Fc1cccc(F)c1C1CCCN1c1cc(Nc2cc(C3CC3)[nH]n2)ncn1 (stereo not drawn) [Example 42] |
| 44 | Fc1ccc(Nc2cc(N3CCCC3c3ccc(F)cc3)ncn2)cc1 (stereo not drawn) [Example 57] |
| 97 | Clc1ccccc1C1CCCN1c1cc(Nc2cc(C3CC3)[nH]n2)ncn1 (stereo not drawn) [Example 39] |
| 100 | Clc1ccc(C2CCCN2c2ncnc(Nc3cc(C4CC4)[nH]n3)n2)cc1 (stereo not drawn) [Example 75] |
| 98 | FC(F)(F)c1ccc(C2CCCN2c2cc(Nc3cc(C4CC4)[nH]n3)ncn2)cc1 (stereo not drawn) [Example 26] |
| 100 | Cc1ccc(C2CCCN2c2cc(Nc3cc(C4CC4)[nH]n3)ncn2)cc1 (stereo not drawn) [Example 25] |
| 103 | Fc1ccc(C2CCCN2c2cc(Nc3cc(C4CC4)[nH]n3)ncn2)cc1 (stereo not drawn) [Example 28] |
| 47 | Clc1ccccc1C1CCCN1c1cc(Nc2cc(-c3ccco3)[nH]n2)ncn1 (stereo not drawn) [Example 56] |
| 0 | CC(C)n1cc(Nc2cc(N3CCCC3c3ccc(F)cc3)ncn2)cn1 (stereo not drawn) [Example 59] |
| 100 | Fc1ccc(C2CCCN2c2ncnc(Nc3cc(C4CC4)[nH]n3)n2)cc1 (stereo not drawn) [Example 73] |
| 103 | Fc1cccc(C2CCCN2c2cc(Nc3cc(C4CC4)[nH]n3)ncn2)c1 (stereo not drawn) [Example 33] |
| -6 | Cc1ccc(C2CCCN2c2ncnc(Nc3cc(C4CC4)[nH]n3)c2C#N)cc1 (stereo not drawn) [Example 47] |
| 91 | COc1cccc(C2CCCN2c2cc(Nc3cc(C4CC4)[nH]n3)ncn2)c1 (stereo not drawn) [Example 32] |
| 100 | Clc1ccc(C2CCCN2c2cc(Nc3cc(C4CC4)[nH]n3)ncn2)cc1Cl (stereo not drawn) [Example 46] |
